Data: PMC6544338, “Comparative biophysical characterization: A screening tool for acetylcholinesterase inhibitors” (PLoS ONE, 2019)
Counter-ions that a name gives are not always drawn. Like-named read-outs stand apart in the source and are kept apart here.

How the values were obtained:
[1] = biological target: T1, AChE (Electrophorus electricus, UniProt O42275); assay: Fluorescence spectral studies of AChE incubated with molecules; settings: excitation 365 nm, control emission maxima […] nm, molecules at IC50 concentration, 10 min
T1 construct: purchased Sigma (St. Louis, MO, USA)
Description: The fluorescence intensities were recorded using 0.5 mgml^-1 protein concentration with an excitation wavelength of 365 nm and an emission wavelength of 400–700 nm with slit widths of 20 nm using MY14410002 fluorescence spectrophotometer (Agilent Technologies, USA) at 25°C. Protein solutions of 0.5 mgml^-1 were prepared in 10 mM PBS at pH 7.7. Scans were performed at room temperature using a 1 cm path length quartz cuvette with 1 s differential integration time at a scan rate of 600 nm min^-1. […] The subsequent changes in fluorescence were measured at this wavelength.
Fig 21 a) Intrinsic fluorescence spectra of the AChE incubated with molecules. […] Scans were performed at 37°C using a 1 cm path length quartz cuvette with 1 s differential integration time at a scan rate of 600 nm min^-1. The excitation wavelength was 365 nm and emission wavelength was in the range of 400–700 nm. b) Intrinsic fluorescence spectra of the AChE incubated with molecules. […] Scans were performed at 37° C using a 1 cm path length quartz cuvette with 1 s differential integration time at a scan rate of 600 nm min^-1. The excitation wavelength was 365 nm and the emission wavelength was in the range of 400–700 nm.

[2] = biological target: T1, AChE; assay: Far-UV circular dichroism of AChE with small molecules (secondary structure composition); settings: for change in secondary structure of AChE compared to control enzyme: CD, far-UV; for Turns of AChE in presence of the molecule / α helix of AChE in presence of the molecule / Random of AChE in presence of the molecule / β sheets of AChE in presence of the molecule: single molecule; for Turns of AChE in presence of the molecule: AChE alone 0; for α helix of AChE in presence of the molecule: AChE alone 3.6±0.012; for Random of AChE in presence of the molecule: AChE alone 44.2±0.46; for β sheets of AChE in presence of the molecule: AChE alone 52.3±0.6
Description: Protein solutions 0.5 milligram per milliliter (mgml^-1) was prepared in 10 mM PBS at pH 7.7. Scans were performed at room temperature using 0.1 cm path length quartz cuvette with 8 s differential integration time at a scan rate of 100 nano meter per minute (nm min^-1). The CD spectrum of AChE enzyme individually and with different small molecules, also in combination was recorded. All spectra resulted from averaging three scans were corrected from the buffer blank. Results were expressed as molar ellipticity (°cm^2 dmol^-1) based on a mean amino acid residue weight (MRW) 110 Da for AChE. The molar ellipticity was determined as [θ obs] = {100 × (MRW) × θobs/cl}, where θ is the observed ellipticity in degrees at a given wavelength, c is the protein concentration in mgml^-1, and l is the path length in cm.
The relative percentages of the secondary structure elements were estimated in triplicates using Manager Suite software.

[3] = biological target: T2, immobilized AChE (Electrophorus electricus, UniProt O42275); assay: biochemical; assay type: binding
T2 construct: purchased Sigma (St. Louis, MO, USA)
Description: (§1) The protocol was followed with some modifications for enzyme immobilization, scouting and screening. SPR interactions were performed using a Biacore X100 optical biosensor (GE Healthcare Life Sciences, Bangalore, India) at 25°C. SPR analysis was carried out in PBS (200 mM, pH 7.7) from the analyte stock solutions, working solutions were diluted before passing on to the sensor surface. Data collection was done with the help of Biacore control software ver 2.0.2 Sets of experiments were carried out by monitoring change in the refractive index as a function of time under constant flow conditions. The relative amount of inhibitor bound to the AChE was determined by measuring the net increase in the refractive index over time compared to buffer as a control. During each run, there is an inline subtraction of the reference surface. Change is reported regarding response units (RU). The surface was washed with 5 cycles of running buffer (PBS) before next analytes.
(§2) As per pH scouting studies, AChE enzyme (100μg) was dissolved in 100 mM sodium acetate buffer pH 4.5 and was immobilized to the CM5 sensor chip by using the amine coupling method. The flow rate was kept constant during immobilization at 10 μlmin^-1, the surface of flow cell was activated by 1:1 mixture of 100 mM EDC and 100 mM NHS (both dissolved in water) for 7 min. AChE was injected for 7 min, and residual activated carboxymethyl groups were blocked on the sensor surface by 7 min injection of 1M ethanolamine, pH 8.5. In this particular study, flow cell 1 was blank immobilized (without protein) and used as a reference. Inline and double referencing was done for the buffer RU compensation.
(§3) Here the model describes this competitive situation and returns two sets of rate constants, one for each reaction taking into consideration two different analytes. The same buffer was used as running buffer. The constant flow rate was maintained throughout the kinetics (45 μlmin^-1), contact time and dissociation time was kept at 120 second (s). 10 mM glycine pH 3.0 for the time period of 30 s was used for regeneration. The experiments were carried at different concentrations of inhibitors.
(§4) The analysis of data was carried out with X100 evaluation software ver 2.0.2 and fitted to two state fit for individual molecules and for competitive experiments a heterogeneous analyte binding model.
Likewise, competitive experiments between different pairs was run by mixing 1:1 ratio of molecules and was fit to heterogeneous analyte model were studied. These experiments are helpful for determining the kinetics of a small molecule analyte in competition with other. Response contributions from both analytes are taken into account by considering molecular weight and concentrations of analytes. For competition binding experiments, pairing was done based on substrate-inhibitor and inhibitor-inhibitor interactions. […] Finally, naturally occurring crocin was also tested due to reports in the literature as a brain tonic for the Alzheimer's.

[4] = biological target: T2, immobilized AChE; assay: biochemical; assay type: binding; settings: for Kd / Ka1 / Kd1: 25°C
Description: as §1, §2, §3, §4

[5] = biological target: T3, acetylcholinesterase from Electrophorus electricus (Electric eel) (Electrophorus electricus, UniProt O42275); assay: Inhibition assay for acetylcholinesterase activity (modified Ellman, ATCI/DTNB, 412 nm); assay type: biochemical
T3 construct: purchased Sigma (St. Louis, MO, USA)
Description: The assay was performed with some modifications of Ellman et al (1961). […] The hydrolysis was monitored by the formation of yellow color (5-thio-2-nitrobenzoate anion) and the absorbance was measured at 412 nm by using spectrophotometer (UV-1800, Shimadzu, Japan).
The inhibitory activity assay was carried out with slight modifications. […] The inhibitory percentage of AChE was calculated as follows:
%inhibition = 100[A − B] − [C − D]/[A − B]
A is the OD without test substance, B is the OD without test substance and AChE, C is the OD with the test substance, D is the OD at 412 nm with the test substance and without AChE.
The relative percentage inhibition were estimated in triplicates and values were expressed as mean ± SEM (n = 3).

[6] = system: AChE; settings: cited from earlier work
[7] = pair crocin (molecule 1) and ATCI (molecule 2), 1:1
[8] = affinity fit, read-out: KD Affinity
[9] = two-state model, read-out: KD Kinetics

T3 sequence (O42275 24-633): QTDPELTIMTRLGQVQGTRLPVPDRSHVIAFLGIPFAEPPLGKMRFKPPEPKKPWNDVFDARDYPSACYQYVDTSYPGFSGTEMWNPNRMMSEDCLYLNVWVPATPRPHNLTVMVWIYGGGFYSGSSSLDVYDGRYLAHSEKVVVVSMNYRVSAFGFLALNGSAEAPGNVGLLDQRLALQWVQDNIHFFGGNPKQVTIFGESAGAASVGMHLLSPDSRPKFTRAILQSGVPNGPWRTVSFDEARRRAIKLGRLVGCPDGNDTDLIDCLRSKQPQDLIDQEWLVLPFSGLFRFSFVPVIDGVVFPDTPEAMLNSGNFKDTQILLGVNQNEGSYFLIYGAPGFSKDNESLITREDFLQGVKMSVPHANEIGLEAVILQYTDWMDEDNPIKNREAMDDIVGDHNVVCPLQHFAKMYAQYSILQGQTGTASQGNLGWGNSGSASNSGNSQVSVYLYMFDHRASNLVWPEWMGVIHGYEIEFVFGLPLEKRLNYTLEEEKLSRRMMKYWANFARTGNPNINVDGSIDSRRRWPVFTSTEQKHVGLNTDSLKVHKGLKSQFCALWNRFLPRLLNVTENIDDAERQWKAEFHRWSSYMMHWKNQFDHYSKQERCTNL
T1 sequence (O42275 24-633): as above
T2 sequence (O42275 24-633): as above

Compound	change in fluorescence emission of AChE compared to control enzyme [1]	change in secondary structure of AChE compared to control enzyme [2]	Turns of AChE in presence of the molecule [2]	α helix of AChE in presence of the molecule [2]	Random of AChE in presence of the molecule [2]	β sheets of AChE in presence of the molecule [2]	Ka2 [4]	Kd [4, 8]	Ka1 ([4]; two-state model)	Kd1 ([4]; two-state model)	Kd [4, 9]	IC50 [5]	Kd2 [4]	also measured
CC(=O)SCC[N+](C)(C)C.[I-] [ATCI, acetylthiocholine iodide, reference compound]	no change	increase in α-helix and a decline in β-sheets	0%	5.9±0.035%	42.8±0.39%	51.3±0.70%	12440 ± 9.6e-05 s⁻¹	2510 µM	76590 ± 12000 M⁻¹ s⁻¹	0.4167 ± 0.13 s⁻¹	2.23 µM			Molecule 2 ka2 [3]: 92910 ± 43000 M⁻¹ s⁻¹; Molecule 2 ka2 [3, 7]: 139500 ± 19000 M⁻¹ s⁻¹; Molecule 2 kd2 [3, 7]: 0.06452 ± 0.0034 s⁻¹; Molecule 2 ka2 ([3]; pair tannic acid (molecule 1) and ATCI (molecule 2), 1:1): 1.529e+06 ± 3.4e+06 M⁻¹ s⁻¹; Kd ([3]; pair tannic acid (molecule 1) and ATCI (molecule 2), 1:1, read-out: Molecule 2 KD): 0.00016 µM; Kd ([3]; read-out: Molecule 2 KD): 0.00989 µM
Cn1c(=O)c2c(ncn2C)n(C)c1=O [Caffeine, caffeine, reference compound]												380 ± 15 µM		Kd ([4]; KD Affinity, affinity fit): 7700 µM; Kd ([4]; KD Kinetics, two-state model): 17.4 µM
C[N+](C)(C)CCOC(N)=O [Carbachol, carbachol, reference compound]	no change	increase in α-helix and a decline in β-sheets	2.6±0.016%	4.0±0.02%	42.4±0.38%	51.0±0.69%	0.001509±2.6×10^−4 1/s	1150 µM	101000 ± 9700 M⁻¹ s⁻¹	0.05155 ± 0.0041 s⁻¹	0.236 µM	210 ± 15 µM	0.001298±1.1×10^−4 1/s	
O.Oc1cc(O)c2c(c1)O[C@H](c1ccc(O)c(O)c1)[C@@H](O)C2 [Catechin hydrate, catechin hydrate]	redshift		0%	10±0.06%	41±0.29%	49±0.67%	0.0158±7.1×10^−4 1/s	738 µM	76.33 ± 3.4 M⁻¹ s⁻¹	0.06336 ± 0.0042 s⁻¹	173 µM		0.004173±1.1×10^−4 1/s	IC50 ([5]; […] ATCI, PBS 200 mM pH 7.7, 37°C, mean ± SEM (n = 3), read-out: IC50): 90 ± 1 µM
CC(/C=C/C=C(\C)C(=O)O[C@@H]1O[C@H](CO[C@@H]2O[C@H](CO)[C@@H](O)[C@H](O)[C@H]2O)[C@@H](O)[C@H](O)[C@H]1O)=C\C=C\C=C(C)\C=C\C=C(/C)C(=O)O[C@@H]1O[C@H](CO[C@@H]2O[C@H](CO)[C@@H](O)[C@H](O)[C@H]2O)[C@@H](O)[C@H](O)[C@H]1O [Crocin, crocin]	redshift		0%	5.7±0.042%	43.8±0.41%	50.5±0.74%	0.003559±9.4×10^−5 1/s	475 µM	601700 ± 6700 M⁻¹ s⁻¹	472 ± 5.2 s⁻¹	470 µM	920 ± 230 µM	0.005325±1.5×10^−4 1/s	Kd [3]: 6020 µM; Molecule 2 ka2 [3]: 1.010 ± 0.11 M⁻¹ s⁻¹; Molecule 2 kd2 [3]: 0.006083±1.1×10^−4 1/s; Molecule 1 ka1 [3, 7]: 3281±5.8×10^2 1/Ms; Molecule 1 kd1 [3, 7]: 0.01684±8.5×10^−4 1/s
O[C@H]1[C@H]2c3cc4c(cc3CN3CCC(=C[C@@H]1O)[C@H]23)OCO4 [Lycorine hydrochloride, lycorine hydrochloride]	increase in the intensity at 415 nm	increase of α-helix	0%	7.2±0.045%	41.6±0.34%	51.2±0.72%			131.5 ± 6.3 M⁻¹ s⁻¹	0.3564 ± 0.011 s⁻¹			0.02658 ± 0.0061 s⁻¹	
O=c1c(O)c(-c2ccc(O)c(O)c2)oc2cc(O)cc(O)c12 [Quercetin, quercetin]	redshift	reduction in α-helix with an increase in β-sheets	1.0±0.006%	3.1±0.010%	42.8±0.39%	53.2±0.75%	0.006822±3.4×10^−4 1/s		117.6 ± 4.3 M⁻¹ s⁻¹	0.05923 ± 0.0028 s⁻¹			0.004964±2.1×10^−4 1/s	
C[C@@H]1O[C@@H](OC[C@H]2O[C@@H](Oc3c(-c4ccc(O)c(O)c4)oc4cc(O)cc(O)c4c3=O)[C@H](O)[C@@H](O)[C@@H]2O)[C@H](O)[C@H](O)[C@H]1O [Rutin hydrate, rutin hydrate]	redshift		0%	8.8±0.056%	40.7±0.27%	50.5±0.72%	0.004468±1.6×10^−4 1/s	1110 µM	11.33 ± 0.25 M⁻¹ s⁻¹	0.04254 ± 0.0013 s⁻¹	1180 µM	1900 ± 90 µM	0.002058±1.6×10^−4 1/s	
O.Oc1cc(O)c2c(c1)O[C@H](c1ccc(O)c(O)c1)[C@@H](O)C2 [catechin]														IC50 ([6]; Catechin isolated from Dasiphora fruticosa, read-out: IC50): 1040 µM; IC50 ([6]; catechin isolated from Eugenia dysenterica): 42.39 µg/mL
